Data from ChEMBL document CHEMBL1129856, “Novel optimised quinuclidine squalene synthase inhibitors” (Bioorg Med Chem Lett, 1997).

Columns and labels:
[1] = molecular target: T1, Squalene synthase (Rattus norvegicus, UniProt Q02769); test: Tested for its inhibitory activity against rat microsomal […] squalene synthase (SQS)
T1 sequence (Q02769 whole entry): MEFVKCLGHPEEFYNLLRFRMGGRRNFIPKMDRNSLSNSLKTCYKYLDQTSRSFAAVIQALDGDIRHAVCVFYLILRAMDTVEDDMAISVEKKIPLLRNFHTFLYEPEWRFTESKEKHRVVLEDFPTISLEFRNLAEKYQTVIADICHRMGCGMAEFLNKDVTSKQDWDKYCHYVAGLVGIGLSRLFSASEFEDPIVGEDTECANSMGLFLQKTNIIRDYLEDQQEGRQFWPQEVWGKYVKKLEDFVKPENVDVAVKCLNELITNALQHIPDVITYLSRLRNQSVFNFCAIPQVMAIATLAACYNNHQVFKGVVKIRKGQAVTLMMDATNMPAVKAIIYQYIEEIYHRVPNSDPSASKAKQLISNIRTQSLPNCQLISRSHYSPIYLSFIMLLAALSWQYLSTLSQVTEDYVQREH

[2] = Plasma half life of hydrolysis of the compound; format: ADME, organism-based; conditions: rat
[3] = species: Rattus norvegicus; test: Tested for inhibition of cholesterol biosynthesis in rat; format: functional
[4] = species: Rattus norvegicus; test: Tested for inhibition against rat cholesterol biosynthesis; format: functional
[5] = molecular target: T2, Squalene synthase (Homo sapiens, UniProt P37268); test: Tested for its inhibitory activity against human microsomal […] squalene synthase (SQS)
T2 sequence (P37268 whole entry): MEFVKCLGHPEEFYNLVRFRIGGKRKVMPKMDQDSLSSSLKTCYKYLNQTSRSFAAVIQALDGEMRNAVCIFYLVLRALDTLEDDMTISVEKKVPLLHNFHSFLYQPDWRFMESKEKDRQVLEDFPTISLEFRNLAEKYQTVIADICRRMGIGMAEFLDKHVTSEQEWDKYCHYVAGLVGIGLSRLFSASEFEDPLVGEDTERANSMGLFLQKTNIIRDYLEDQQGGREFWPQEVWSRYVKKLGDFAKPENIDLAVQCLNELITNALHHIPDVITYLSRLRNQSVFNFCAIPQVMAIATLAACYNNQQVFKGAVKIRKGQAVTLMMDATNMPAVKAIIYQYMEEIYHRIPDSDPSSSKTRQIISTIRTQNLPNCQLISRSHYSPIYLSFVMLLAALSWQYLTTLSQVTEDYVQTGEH

| SMILES | Ki [1] | ED50 [4] | further results |
| --- | --- | --- | --- |
| C=CCc1cc(CC(=O)OCC)ccc1C#CC1(O)CN2CCC1CC2 (stereo not drawn) | 100 nM | – | – |
| C=CCc1cc(CCC(=O)OCc2ccccc2)ccc1C#CC1(O)CN2CCC1CC2 (stereo not drawn) | – | – | half-life [2]: ≤ 5 min; ED50 [3]: 1.6 mg/kg |
| C=CCc1cc(CCC(=O)O)ccc1C#C[C@@]1(O)CN2CCC1CC2.Cl (single isomer, unassigned) | – | – | ED50 [3]: 0.9 mg/kg |
| C=CCc1cc(CCC(=O)O)ccc1C#CC1(O)CN2CCC1CC2.Cl (stereo not drawn) | – | – | ED50 [3]: 1.8 mg/kg |
| C=CCc1cc(CCC(=O)OCC)ccc1C#CC1(O)CN2CCC1CC2 (stereo not drawn) | 6 nM | 1.3 mg/kg | half-life [2]: ≤ 5 min; Ki [5]: 43 nM |
| C=CCc1cc(CCC(=O)OC)ccc1C#CC1(O)CN2CCC1CC2 (stereo not drawn) | 20 nM | 1.3 mg/kg | – |
| C=CCc1cc(CCCC(=O)OC)ccc1C#CC1(O)CN2CCC1CC2 (stereo not drawn) | 2 nM | 1.3 mg/kg | – |
| C=CCc1cc(CCC(=O)NC)ccc1C#CC1(O)CN2CCC1CC2 (stereo not drawn) | > 250 nM | – | – |
| C=CCc1cc(CCCCC(=O)OC)ccc1C#CC1(O)CN2CCC1CC2 (stereo not drawn) | 8 nM | 1.3 mg/kg | – |
| C=CCc1cc(CCC(=O)OCCCCCC)ccc1C#CC1(O)CN2CCC1CC2 (stereo not drawn) | – | – | half-life [2]: ≤ 5 min; ED50 [3]: 1.5 mg/kg |
| C=CCc1cc(CCCCCC(=O)OC)ccc1C#CC1(O)CN2CCC1CC2 (stereo not drawn) | 20 nM | 1.3 mg/kg | – |
| C=CCc1cc(CCC(=O)N(CC)CC)ccc1C#CC1(O)CN2CCC1CC2 (stereo not drawn) | > 250 nM | – | – |
| C=CCc1cc(CCC#N)ccc1C#CC1(O)CN2CCC1CC2 (stereo not drawn) | > 250 nM | – | – |
| C=CCc1cc(CCC(N)=O)ccc1C#CC1(O)CN2CCC1CC2 (stereo not drawn) | > 250 nM | – | – |
